Reference: patent US10118922B2 (Janssen Pharmaceutica NV, priority 2013, dated 2018)

target: T1, short form of the GPR120 receptor (Homo sapiens, UniProt Q5NUL3); assay: Human GPR120 DiscoveRx PathHunter beta-arrestin assay, Procedure β-arrestin B; format: cell-based; conditions: PathHunter CHO-K1 GPR120S β-Arrestin cells, 5000 cells/well; read-out: hGPR120 β-arrestin B EC50
T1 construct: host or cells: PathHunter CHO-K1 GPR120S β-Arrestin Cell Line
T1 sequence (Q5NUL3 1-361): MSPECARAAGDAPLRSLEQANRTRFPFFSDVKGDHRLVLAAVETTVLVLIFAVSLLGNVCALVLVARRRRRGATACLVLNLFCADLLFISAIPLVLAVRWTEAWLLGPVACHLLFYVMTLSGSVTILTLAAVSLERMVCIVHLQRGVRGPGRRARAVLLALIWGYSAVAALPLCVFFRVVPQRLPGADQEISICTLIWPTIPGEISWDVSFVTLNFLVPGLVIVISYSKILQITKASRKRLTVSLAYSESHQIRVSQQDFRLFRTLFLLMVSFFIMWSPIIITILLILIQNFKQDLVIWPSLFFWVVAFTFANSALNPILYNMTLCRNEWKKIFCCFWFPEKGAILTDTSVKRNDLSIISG
Source text: The binding of an agonist (medium/long chain fatty acids or small molecule agonists) to the G-protein-coupled receptor GPR120 activates phospholipase C, leading to release of intracellular Ca^+2 through the generation of inositol 1,4,5-trisphosphate (InsP3 or IP3). GPR120 activation can also trigger intracellular signaling via recruitment of Beta-Arrestin. In the present method, agonist-induced activation of the human GPR120 receptor is monitored through the use of PathHunter CHO-K1 GPR120 Beta-Arrestin Cell Line engineered by DiscoveRx, as detailed below. The cell lines are designed to co-express both the ProLink/Enzyme Donor (PK)-tagged GPCR and the Enzyme […] (EA)-tagged Beta-Arrestin fusion proteins. Upon GPR120 receptor stimulation/activation, the EA-tagged Beta-Arrestin portion is translocated to the tagged receptor, where the two enzyme fragments are brought within close proximity. Under these conditions, these fragments can interact and form an active Beta-gal enzyme complex through Enzyme Fragment Complementation (EFC). This active Beta-gal complex can enzymatically hydrolyse the substrate to produce a detectable light signal; therefore, activation as a function of agonist concentration can be expressed as an EC50 value to determine relative compound activities. This in vitro assay therefore serves to assess compound agonist activity of the GPR120.
In Procedure β-arrestin B the cells used were PathHunter CHO-K1 GPR120S β-Arrestin Cell Line, expressing the short form of the GPR120 receptor (Accession #NM 181745), with 5000 cells/well.
The selected CHO-K1 GPR120 β-Arrestin cells were cultured in Ham's F12 media supplemented with 10% fetal bovine serum (FBS), 1% Glutamine, 1×p/s, 800 μg/mL G418 and 300 μg/mL Hygromycin B (for selection). Cell stocks were maintained and grown in a sub-confluent state using standard cell culture procedures. The day before the experiment, the cells were harvested with non-enzymatic cell dissociation buffer and re-suspended in complete growth media at the desired concentration. A Corning 384-plate was then seeded with the proper number of cells in a volume of 25 μL, per well. The seeded plates were incubated overnight at 37° C.
On the day of the experiment, the Assay Buffer containing (a) HBSS with Ca^++ and Mg^++, (b) 20 mM HEPES, and (c) 0.1% BSA stabilizer (pH 7.4) was prepared. The growth medium was gently removed from the cell plates and 20 μL of Assay Buffer added to each well. The plate was then incubated at 37° C. for 60 min. Test compounds were serially diluted in Assay Buffer to desired concentrations (more particularly to one or more of the following μM concentrations: 25, 12.5, 6.25, 3.125, 1.5625, 0.78125, 0.390625, 0.1953125, 0.09765625, 0.048828125, 0.024414063, 0.012207031). Five μL of compound dilution was then added to each well and the plate incubated at 37° C. for 90 min. The detection reagents were prepared according to the manufacture's instruction. Twelve μL of the detection reagents were added to each well and the plate incubated at room temperature for 60 min.
The plates were read on an EnVision instrument, using Protocol name: Luminescence, Plate type: 384 Costar, Measurement height: 3 mm, Measurement time: 1 s, Aperture: 384 Plate aperture. The % activity relative to the positive control was calculated using the following equation:
The % Activity values were plotted versus the concentration of test compound and fitted to a sigmoidal dose-response curve with a Hill slope=1 (fixed value) using nonlinear regression with GraphPad Prism 5.0 to calculate the EC50 values. The Fitting Equation was: Y=Bottom+(Top-Bottom)/(1+10^((Log EC50−X)*HillSlope)), where X is the log of the concentration and Y is the response.

Point of comparison: O=C(O)CCc1cc(F)c(OCc2sc(Cl)cc2-c2ccc(Cl)cc2)c(F)c1 [Cpd 2, 3-(4-{[5-Chloro-3-(4-chlorophenyl)thiophen-2-yl]methoxy}-3,5-difluorophenyl)propanoic acid], EC50 68 nM. Against it:
- Cc1sc(-c2ccccc2)c(COc2ccc(CCC(=O)O)c(C)c2C)c1C(F)(F)F [Cpd 33, 3-(2,3-Dimethyl-4-{[5-methyl-2-phenyl-4-(trifluoromethyl)thiophen-3-yl]methoxy}phenyl)propanoic acid] — 4.7-fold higher, 322 nM
- OCCCc1cc(F)c(OCc2c(Cl)nsc2-c2ccc(Cl)cc2)c(F)c1 [Cpd 78, 3-(4-{[3-Chloro-5-(4-chlorophenyl)isothiazol-4-yl]methoxy}-3,5-difluorophenyl)propan-1-ol] — 2.2-fold lower, 31 nM
